Tests used:
[1] = test system: primary microglia; assay: Flow cytometry of active caspase-3 and cathepsin B (CB) in microglia; format: cell-based, mouse; settings: N-α-syn-stimulated cultures
Procedure: Samples from cell fractions were labeled with fluorescently labeled Abs to CD4, CD8, CD25, CTLA-4, CD62L, Fas ligand (FasL), Fas (APO-1), CD1 b, and intracellular FoxP3 (eBioscience) and active caspase-3 (Abcam) and analyzed with a FACSCalibur flow cytometer (BD Biosciences). FITC-latex beads ([…], 2.5% solids; Sigma-Aldrich) were added to microglial cultures for 30 minutes. Microglia were then detached and acid-washed (PBS, pH 6.0) to quench fluorescence of nonphagocytosed beads, and cells were analyzed by flow cytometry and gated to CD11b+ cells. Fluorescence intensity was normalized to beads alone.
Apoptotic cells were detected using the TACS TdT Fluorescein In Situ Apoptosis Detection kit (R&D Systems) according to the manufacturer's protocol and were visualized by a fluorescent microscope. MFI of TUNEL+ cells was determined per field using ImageJ and was normalized to DAPI-stained nuclei (n=3, six fields per well). Caspase activity was determined using the SensoLyte Homogeneous Rh110 Caspase-3/7 Assay kit (AnaSpec) according to the manufacturer's protocol. Cell viability was determined by 3-(4,5-dimethylthiazol-2-yl)-2,5-diphenyl tetrazolium bromide (MTT) activity as described previously. Functional grade Abs to mouse FasL (2 μg/ml; eBioscience) and Fas (5 μg/ml; BD PharMingen) and CA074ME (BIOMOL) were used.

[2] = test system: MES23.5 cells; assay: Cathepsin B inhibition and neurotoxicity, microglial supernatants on MES23.5 cells; format: cell-based; settings: inhibitor 1 μM, N-α-syn 100 nM
Procedure: MES 23.5 cells were cultured in 75-cm^2 flasks in DMEM/F12 with 15 mM HEPES (Invitrogen) containing N2 supplement (Invitrogen), 100 U/ml of penicillin, 100 μg/ml streptomycin, and 5% FBS. MES23.5 cells is a cell line derived using somatic cell fusion of rat embryonic mesencephalon cells and the murine neuroblastoma-glioma cell line N18TG2 that produce dopamine and express tyrosine hydroxylase (Crawford et al. (1992) J. Neuroscience 12:3392-3398). Cells were grown to 80% confluence then plated at a density of 10×10^4 cells on sterile glass coverslips. Microglia were plated in 6 well plates and incubated for 1 hour with or without 1 μM of cathepsin B inhibitors, CA-074 [cell impermeable] or CA-074 Me [cell permeable] (Sigma), in a 37° C., 5% CO2 incubator to inhibit residual cathepsin B expression (Gan et al. (2004) J. Biol. Chem., 279:5565-5572). […] MES 23.5 cell viability was assessed using the Live/Dead cytotoxicity assay (Invitrogen) as previously described. Live cells were distinguished by the uptake of calcein AM to acquire a green fluorescence [excitation/emission (ex/em) 495/515 nm], while dead cells acquired a red fluorescence (ex/em 495/635 nm) due to the uptake of ethidium homodimer-1 (EthD-1). Cell enumerations were performed using fluorescence microscopy (200× magnification, n=6 wells per group, 3 frames per well).

[3] = test system: TNF-α; assay: Cytometric bead array of T cells restimulated with antigen; format: cell-based, mouse; settings: T cells from N-4YSyn-immunized donors restimulated in vitro
Procedure: Triplicate co-cultures of antigen presenting cells (APC) and T cells from PBS, 4YSyn- and N-4YSyn-immunized mice were stimulated with 4YSyn or N-4YSyn. After 24 hours of culture, 50 μl samples were collected, centrifuged, and supernatants frozen at −80° C. until utilized. Frozen supernatants were thawed only once and analyzed using the BD Cytometric Bead Array Mouse Th1/Th2 Kit (BD Biosciences, San Jose, Calif.) according to the manufacturer's instructions.

[4] = test system: anti-CD3 stimulated T cells; assay: PI uptake cytotoxicity of anti-CD3 stimulated T cells (flow cytometry); format: cell-based, mouse; settings: 24 hours
Procedure: To assess α-Syn-mediated cytotoxicity, purified T cells were stimulated with anti-CD3 and cultured at a density of 1×10^6 cells/ml for 24 hours in media alone or in the presence of 4YSyn or N-4YSyn at concentrations of 1, 3, 10, or 30 μg/ml. Cells were stained with PI, washed and the percentages of PI^+ dead cells and MFI were analyzed by flow cytometry.

[5] = test system: SPC (spleen cells); assay: Antigen-specific 3H-thymidine proliferation of SPC from immunized mice; format: cell-based, mouse
[6] = test system: effector T cells; assay: Treg inhibition of CD3-mediated effector T cell proliferation; format: cell-based, mouse; settings: Treg from FoxP3-GFP donors, ratio of 1:1
Procedure: Seven days following treatment, mice were sacrificed and single cell suspensions were prepared from inguinal lymph nodes and spleens. CD4+ T cell populations from spleens and lymph nodes were enriched by negative selection with CD4-enrichment columns (R & D Systems) followed by CD25-PE positive selection with AutoMACS (Miltenyi Biotec). […] Proliferation and inhibition assays were performed as described. MPTP-intoxicated mice received an i.v. tail injection of 5×10^7 SPC or 1×10^6 Treg in 0.25 ml of HBSS.

| Compound | diminution of active caspase-3+ cells [1] | protection of DA cells v. N-α-syn alone [2] | TNF-α levels [3] | % PI+ T cells ([4]; 1 μg/ml) | MFI of PI-stained T cells ([4]; 1 μg/ml) | % PI+ T cells ([4]; 3 μg/ml) | MFI of PI-stained T cells ([4]; 3 μg/ml) | % PI+ T cells ([4]; 10 μg/ml) | MFI of PI-stained T cells ([4]; 10 μg/ml) | % PI+ T cells ([4]; 30 μg/ml) | MFI of PI-stained T cells ([4]; 30 μg/ml) | proliferative response of SPC to in vitro stimulation with the antigen ([5]; B6 mice immunized with N-4YSyn/PBS without adjuvant) | proliferative response of SPC to in vitro stimulation with the antigen ([5]; B10.BR mice immunized in CFA/IFA) | inhibition of effector T cell proliferation to anti-CD3 stimulation by Treg [6] |
| --- | --- | --- | --- | --- | --- | --- | --- | --- | --- | --- | --- | --- | --- | --- |
| CCCNC(=O)[C@H]1O[C@@H]1C(=O)N[C@H](C(=O)N1CCC[C@H]1C(=O)OC)[C@@H](C)CC [CA-074 Me] | 11.1±0.5% | 87% | – | – | – | – | – | – | – | – | – | – | – | – |
| N-4YSyn: peroxynitrite-nitrated recombinant His-tagged C-terminal 40 aa fragment of mouse α-Syn | – | – | 26.0 ± 1.2 pg/mL | 15.9% | 42.8 | 17.9% | 58.7 | 47.8% | 71.6 | 91.3% | 106.1 | significant lymphocyte proliferative response | significant proliferative responses | 20% |

Reference: US9782464B2, “Methods and compositions for inhibiting diseases of the central nervous system” (Board of Regents of the University of Nebraska, priority 2008, dated 2017)
